From BindingDB's records for doi:10.1016/j.bioorg.2016.11.011 (Tehran University of Medical Sciences, 2017)
Where “and” joins values, the source holds several entries; their conditions need not be identical. Equal values may be shown once.

Key:
Acetylcholinesterase = Acetylcholinesterase (Electrophorus electricus, UniProt O42275); experiment: AChE and BChE Inhibition Assay; settings: pH 8; 25 °C
Description: (§1) In vitro anti-AChE activity was performed based on the modified Ellman's method [Ellman et al., Biochem. Pharmacol., […]]. […] Each well contained 50 μL potassium phosphate buffer (KH2PO4/K2HPO4, 0.1 M, pH 8), 25 μL prepared sample as described above, 25 μL enzyme with final concentration of 0.22 U/mL in buffer. They were preincubated for 15 min at room temperature, and then […] DTNB (3 mM in buffer) was added. […] The IC50 values were determined graphically from inhibition curves (log inhibitor concentration vs. percent of inhibition). A control experiment was performed under the same conditions without inhibitor and the blank contained buffer, water, DTNB, and substrate. The described method was also used for BChE inhibition assay.

[1] = target: Carboxylic ester hydrolase (Equus caballus, UniProt Q9N1N9); experiment: AChE and BChE Inhibition Assay; settings: pH 8; 25 °C
Sequence of Carboxylic ester hydrolase (Q9N1N9 whole entry): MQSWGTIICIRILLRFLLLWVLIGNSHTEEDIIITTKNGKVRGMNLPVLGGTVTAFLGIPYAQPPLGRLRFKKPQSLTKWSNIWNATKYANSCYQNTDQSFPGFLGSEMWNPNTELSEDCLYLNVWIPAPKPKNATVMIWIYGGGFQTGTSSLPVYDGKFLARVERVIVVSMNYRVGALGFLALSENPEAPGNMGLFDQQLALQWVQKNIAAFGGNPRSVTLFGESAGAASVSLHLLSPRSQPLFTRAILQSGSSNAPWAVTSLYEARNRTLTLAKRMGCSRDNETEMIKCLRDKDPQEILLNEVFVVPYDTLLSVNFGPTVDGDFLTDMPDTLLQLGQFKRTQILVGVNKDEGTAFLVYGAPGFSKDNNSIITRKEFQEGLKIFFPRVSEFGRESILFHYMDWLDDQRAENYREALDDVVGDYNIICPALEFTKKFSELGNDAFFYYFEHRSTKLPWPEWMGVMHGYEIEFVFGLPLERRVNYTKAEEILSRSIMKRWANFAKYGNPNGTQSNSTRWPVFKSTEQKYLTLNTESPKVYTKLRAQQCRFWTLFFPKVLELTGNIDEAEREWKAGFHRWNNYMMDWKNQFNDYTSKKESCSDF
Description: as §1

Sequence of Acetylcholinesterase (O42275 whole entry): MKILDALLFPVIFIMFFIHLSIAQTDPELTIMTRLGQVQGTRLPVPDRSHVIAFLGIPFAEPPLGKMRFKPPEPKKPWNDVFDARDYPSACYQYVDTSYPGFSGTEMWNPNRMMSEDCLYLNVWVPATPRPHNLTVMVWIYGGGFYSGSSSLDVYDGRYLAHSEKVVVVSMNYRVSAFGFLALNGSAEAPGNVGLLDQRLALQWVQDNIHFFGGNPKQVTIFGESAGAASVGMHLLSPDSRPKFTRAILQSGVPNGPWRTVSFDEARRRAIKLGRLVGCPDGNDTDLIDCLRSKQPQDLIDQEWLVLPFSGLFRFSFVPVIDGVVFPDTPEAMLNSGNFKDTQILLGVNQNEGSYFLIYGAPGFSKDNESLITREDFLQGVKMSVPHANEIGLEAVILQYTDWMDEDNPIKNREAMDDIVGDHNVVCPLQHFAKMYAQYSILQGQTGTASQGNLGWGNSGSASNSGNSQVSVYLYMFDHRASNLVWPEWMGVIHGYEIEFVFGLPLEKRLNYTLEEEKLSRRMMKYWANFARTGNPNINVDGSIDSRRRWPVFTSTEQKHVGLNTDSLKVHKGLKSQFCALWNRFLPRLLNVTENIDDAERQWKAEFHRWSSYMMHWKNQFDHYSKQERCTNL

Compound `COc1cccc2cc(C(=O)NCc3cn(Cc4ccccc4C)nn3)c(=O)oc12` [8-Methoxy-N-((1-(2-methylbenzyl)-1H-1,2,3-triazol-4-yl)methyl)-2-oxo-2H-chromene-3-carboxamide (6l)] has an IC50 (Acetylcholinesterase) of 24.1 µM and an IC50 [1] greater than 100 µM.
Compound `COc1cccc2cc(C(=O)NCc3cn(Cc4cccc(Cl)c4Cl)nn3)c(=O)oc12` [N-((1-(2,3-dichlorobenzyl)-1H-1,2,3-triazol-4-yl)methyl)-8-methoxy-2-oxo-2H-chromene-3-carboxamide (6n)] has an IC50 (Acetylcholinesterase) of 33.8 µM and an IC50 [1] greater than 100 µM.
In the case of `O=C(NCc1cnnn1Cc1cccc(Cl)c1Cl)c1cc2ccccc2oc1=O` [N-((1-(2,3-dichlorobenzyl)-1H-1,2,3-triazol-5-yl)methyl)-2-oxo-2H-chromene-3-carboxamide (6h)], the IC50 (Acetylcholinesterase) is reported as 20.2 µM and the IC50 [1] is reported as 67 µM.
With `O=C(NCc1cnnn1Cc1ccccc1Br)c1cc2ccccc2oc1=O` [N-((1-(2-bromobenzyl)-1H-1,2,3-triazol-5-yl)methyl)-2-oxo-2H-chromene-3-carboxamide (6j)] the IC50 [1] was 31 µM and > 100 µM.
Compound `COc1cccc2cc(C(=O)NCc3cn(Cc4ccccc4Cl)nn3)c(=O)oc12` [N-((1-(2-chlorobenzyl)-1H-1,2,3-triazol-4-yl)methyl)-8-methoxy-2-oxo-2H-chromene-3-carboxamide (6m)] has an IC50 (Acetylcholinesterase) of 15.4 µM and an IC50 [1] of 96.1 µM.
In the case of `O=C(NCc1cnnn1Cc1ccccc1Cl)c1cc2ccccc2oc1=O` [N-((1-(2-chlorobenzyl)-1H-1,2,3-triazol-5-yl)methyl)-2-oxo-2H-chromene-3-carboxamide (6f)], the IC50 (Acetylcholinesterase) is reported as 34 µM and the IC50 [1] is reported as greater than 100 µM.
With `Cc1ccccc1Cn1nncc1CNC(=O)c1cc2ccccc2oc1=O` [N-((1-(2-methylbenzyl)-1H-1,2,3-triazol-5-yl)methyl)-2-oxo-2H-chromene-3-carboxamide (6b)] the IC50 (Acetylcholinesterase) was 78.9 µM and the IC50 [1] was greater than 100 µM.
With `COc1cccc2cc(C(=O)NCc3cn(Cc4ccc(Cl)c(Cl)c4)nn3)c(=O)oc12` [N-((1-(3,4-dichlorobenzyl)-1H-1,2,3-triazol-4-yl)methyl)-8-methoxy-2-oxo-2H-chromene-3-carboxamide (6o)] the IC50 (Acetylcholinesterase) was 25.5 µM and the IC50 [1] was greater than 100 µM.
Work on `O=C(NCc1cnnn1Cc1ccc(Cl)c(Cl)c1)c1cc2ccccc2oc1=O` [N-((1-(3,4-dichlorobenzyl)-1H-1,2,3-triazol-5-yl)methyl)-2-oxo-2H-chromene-3-carboxamide (6i)] yielded an IC50 (Acetylcholinesterase) of 16.7 µM and an IC50 [1] greater than 100 µM.
`O=C(NCc1cnnn1Cc1cccc(Cl)c1)c1cc2ccccc2oc1=O` [N-((1-(3-chlorobenzyl)-1H-1,2,3-triazol-5-yl)methyl)-2-oxo-2H-chromene-3-carboxamide (6g)] showed an IC50 (Acetylcholinesterase) of 92.8 µM and an IC50 [1] greater than 0.1 µM.
`O=C(NCc1cnnn1Cc1cccc(F)c1)c1cc2ccccc2oc1=O` [N-((1-(3-fluorobenzyl)-1H-1,2,3-triazol-5-yl)methyl)-2-oxo-2H-chromene-3-carboxamide (6d)] showed an IC50 (Acetylcholinesterase) of 48.1 µM and an IC50 [1] greater than 100 µM.
For `O=C(NCc1cn(Cc2ccc(Br)cc2)nn1)c1cc2ccccc2oc1=O` [N-((1-(4-bromobenzyl)-1H-1,2,3-triazol-4-yl)methyl)-2-oxo-2H-chromene-3-carboxamide (6k)], the IC50 [1] was > 100 µM and 75.3 µM.
Work on `O=C(NCc1cnnn1Cc1ccc(F)cc1)c1cc2ccccc2oc1=O` [N-((1-(4-fluorobenzyl)-1H-1,2,3-triazol-5-yl)methyl)-2-oxo-2H-chromene-3-carboxamide (6e)] yielded an IC50 (Acetylcholinesterase) greater than 100 µM and an IC50 [1] greater than 100 µM.
Compound `Cc1ccc(Cn2nncc2CNC(=O)c2cc3ccccc3oc2=O)cc1` [N-((1-(4-methylbenzyl)-1H-1,2,3-triazol-5-yl)methyl)-2-oxo-2H-chromene-3-carboxamide (6c)] has an IC50 (Acetylcholinesterase) greater than 100 µM and an IC50 [1] greater than 100 µM.
For `O=C(NCc1cnnn1Cc1ccccc1)c1cc2ccccc2oc1=O` [N-((1-benzyl-1H-1,2,3-triazol-5-yl)methyl)-2-oxo-2Hchromene-3-carboxamide (6a)], the IC50 (Acetylcholinesterase) was greater than 100 µM and the IC50 [1] was greater than 100 µM.
